Data on five compounds can be found in US6380183B1, “Treatment of diseases involving cyst formation” (Scios, Inc., priority 1998, dated 2002).

The test system of data set [1] is isolated working rat heart. The conditions noted are these: isolated working rat heart model; cited from earlier work.
Data set [2] concerns human ADPKD cells. The data set is described as follows: Promega Cell titer 96 MTT proliferation assay on human ADPKD cells. It is filed as cell-based. As to the method: In this experiment, the effect of concentrations from […] to 10^−6 M of the known PTBR agonist, Ro5-4864 on the rate of proliferation of human autosomal dominant polycystic kidnay disease (ADPKD) cells was examined.
Epithelial cells from human ADPKD kidneys have been cultured from the domes of cysts and maintained in primary culture through several passages.
The rate of cell proliferation was determined using the Promega Cell titer 96 MTT Assay method. This assay is a modification of that described by Mosmann T 1983 J Immunol Meth. 65, 55. […] The relation between cell number and O.D. was linear, and r^2 was >0.98. To determine the effect of agonists on the rate of proliferation, approximately 4000 cells were seeded into individual chambers of a 96-well plate. The cells were incubated initially in DME/F12 medium supplemented only with penicillin, streptomycin, ITS and 1% FBS. After 24 hours,.the FBS was reduced to 0.002% (ITS deleted) to arrest growth. This small amount of serum was needed to potentiate cell attachment to the plastic surface. The human ADPKD cells were then cultured for 48 hours, after adding the cAMP (a stimulator of cell proliferation) at a concentration of 100 μM. A control and forskolin group were examined as well. Preliminary studies determined that growth was sustained over this entire interval.
Thereafter the effect of a range of concentrations from 10^−12 to 10^−6 M of the known PTBR agonist, Ro5-4864 on the rate of proliferation of […] pretreated with cAMP or not treated (baseline proliferation) was examined. The results are graphically illustrated in FIG. 6. Each data set shown in FIG. 6 is mean, and was obtained from six determinations. Accordingly, the results are highly statistically significant.
(Tetrazolium assays rely on reduction of a dye to a coloured formazan, in cell work by metabolically active cells.)

Data set [3] relates to human atrial strips. Particulars: not antagonized by PK 11195; cited from earlier work.
The test system of data set [4] is Langendorf rat heart. The conditions noted are these: cited from earlier work.
For data set [5], the system named is guinea pig heart preparation. Particulars: Ro5-4864 effects reversed by PK 11195; cited from earlier work.
Data set [6] deals with polycystic cpk mice. The conditions noted are these: cited from earlier work.

Structures are written as SMILES.

As for `CCC(C)N(C)C(=O)c1cc2ccccc2c(-c2ccccc2Cl)n1` (centres unmarked) [PK 11195, 1-(2-chlorophenyl)-N-methyl-N-(1-methylpropyl)-3-isoquinoline carboxamide], the cardiac function result in data set [1] is “depress cardiac function”.

Turning to `CN1C(=O)CN=C(c2ccc(Cl)cc2)c2cc(Cl)ccc21` [Ro5-4864], the “visual observation of the cells: growth arrest versus cell killing” value in data set [2] (human ADPKD cells) was “arresting cell growth and not be killing the cells”. Also, in data set [2] (human ADPKD cells not treated with cAMP (baseline), all concentrations examined, 10^-12 to 10^-6 M, MTT O.D., six determinations), the basal cell proliferation result is “blocked”. Further, the “cAMP stimulated cell proliferation” value in data set [2] (human ADPKD cells pretreated with 100 μM cAMP, all concentrations examined, 10^-12 to 10^-6 M, MTT O.D., six determinations) is given as “blocked”. In data set [3], the “depressant effect on the contraction amplitude (negative inotropic effect)” value was 20%. Further, the cardiac function entry in data set [1] was “depress cardiac function”. Further, in data set [4] (isolated perfused Langendorf rat heart), the “heart rate and left ventricular contractility” value was “without affecting”. Besides, the coronary flow result in data set [4] (isolated perfused Langendorf rat heart, effect not antagonized by PK 11195) is reported as “increase coronary flow”. Also, the “duration of intracellular action potential and contractility” value (from here on “duration”) in data set [5] was “decreased”.

For `CN1C(=O)CN=C(c2ccccc2)c2cc(Cl)ccc21` [diazepam], the contractile force entry in data set [4] (Langendorf rat heart) is “increased contractile force”. Moreover, in data set [5], the “duration” value is reported as “less effective”.

Consider `CC(=O)O[C@H]1C(=O)[C@@]2(C)[C@H]([C@H](OC(=O)c3ccccc3)[C@]3(O)C[C@H](OC(=O)[C@H](O)[C@@H](NC(=O)c4ccccc4)c4ccccc4)C(C)=C1C3(C)C)[C@]1(OC(C)=O)CO[C@@H]1C[C@@H]2O` [taxol], for which, in data set [6], the “progression of PKD” value is “inhibit the progression of PKD” and the survival entry was “prolongs the survival”.

On to `O=C1CN=C(c2ccccc2Cl)c2cc([N+](=O)[O-])ccc2N1` [clonazepam], for which the “duration” value in data set [5] is “ineffective”.
